Experimental data taken from patent US20240082296A1, “TREATMENT OF MUSCLE ATROPHY USING DEXTRAN SULFATE” (TX MEDIC AB, priority 2020, published 2024).
Marks after values point to notes of the source that are not given here.

Tested on: severe traumatic brain injury (sTBI) in rats
Assay: HPLC of free amino acids and amino group containing compounds in rat brain after sTBI (Example 4)
Format: in vivo
Experimental: The effects of daily sub-cutaneous injections of dextran sulfate on glutamate excitotoxicity and mitochondrial function after severe traumatic brain injury (sTBI) in rats were evaluated by high-performance liquid chromatography (HPLC) analysis of frozen brain samples.
The experimental protocol used in this study was approved by the Ethical Committee of the Catholic University of Rome, according to international standards and guidelines for animal care. Male Wistar rats of 300-350 g body weight (b.w.) were fed with standard laboratory diet and water ad libitum in a controlled environment.
They were divided into three groups: • 1) n=6 animals subjected to sTBI, with drug administration after 30 minutes and sacrifice at 2 days post-TBI (Acute phase 1) • 2) n=6 animals subjected to severe-TBI, with drug administration after 30 minutes and sacrifice at 7 days post-TBI (Acute phase 2). • 3) n=6 animals subjected to severe-TBI, with drug administration after 3 days and sacrifice at 7 days post-TBI (Chronic phase).
As the anesthetic mixture, animals received 35 mg/kg b.w. ketamine and 0.25 mg/kg b.w. midazolam by i.p. injection. sTBI was induced by dropping a 450 g weight from 2 m height on to the rat head that had been protected by a metal disk previously fixed on the skull, according to the “weight drop” impact acceleration model (Marmarou et al., A new model of diffuse brain injury in rats. Part I: Pathophysiology and biomechanics. J Neurosurg. 1994; 80: 291-300). […] At the end of each period of treatment, rats were anesthetized again and then immediately sacrificed.
The drug treatment was a subcutaneous injection of 0.5 ml of dextran sulfate (Tikomed AB, Viken, Sweden, WO 2016/076780; 15 mg/kg) and administered according to the aforementioned schematic protocol.
An in vivo craniectomy was performed in all animals during anesthesia, after carefully removing the rat's skull, the brain was exposed and removed with a surgical spatula and quickly dropped in liquid nitrogen. After the wet weight (w.w.) determination, tissue preparation was affected as previously disclosed (Tavazzi et al., Cerebral oxidative stress and depression of energy metabolism correlate with severity of diffuse brain injury in rats. Neurosurgery. 2005; 56: 582-589; Vagnozzi et al., Temporal window of metabolic brain vulnerability to concussions: mitochondrial-related impairment-part I. Neurosurgery. 2007; 61: 379-388; Tavazzi et al., Temporal window of metabolic brain vulnerability to concussions: oxidative and nitrosative stresses-part II. Neurosurgery. 2007; 61: 390-395; Amorini et al., Severity of experimental traumatic brain injury modulates changes in concentrations of cerebral free amino acids. J Cell Mol Med. 2017; 21: 530-542.). Briefly, whole brain homogenization was performed with 7 ml of ice-cold, nitrogen-saturated, precipitating solution composed by CH3CN+10 mM KH2PO4, pH 7.40, (3:1; v:v), and using an Ultra-Turrax set at 24,000 rpm/min (Janke & Kunkel, Staufen, Germany). After centrifugation at 20,690×g, for 10 min at 4° C., the clear supernatants were saved, pellets were supplemented with 3 ml of the precipitating solution and homogenized again as described above. A second centrifugation was performed (20,690×g, for 10 min at 4° C.), pellets were saved, supernatants combined with those previously obtained, extracted by vigorous agitation with a double volume of HPLC-grade CHCl3 and centrifuged as above. The upper aqueous phases containing water-soluble low-molecular weight compounds were collected, subjected to chloroform washings for two more times (this procedure allowed the removal of all the organic solvent and of any lipid soluble compound from the buffered tissue extracts), adjusted in volumes with 10 mM KH2PO4, pH 7.40, to have ultimately aqueous 10% tissue homogenates and saved at −80° C. until assayed. […]

[1] = Acute phase 1 (15 mg/kg s.c. 30 min after sTBI, sacrifice 2 days post-TBI)
[2] = Acute phase 2 (15 mg/kg s.c. 30 min after sTBI, sacrifice 7 days post-TBI)
[3] = Chronic phase (15 mg/kg s.c. 3 days after sTBI, sacrifice 7 days post-TBI)

Substance: dextran sulfate
- cerebral ALA concentration [1]: 0.50 ± 0.12^a μmol/g (w.w.)
- cerebral ARG concentration [1]: 0.13 ± 0.02^b,d μmol/g (w.w.)
- cerebral ASN concentration [1]: 0.12 ± 0.02^i μmol/g (w.w.)
- cerebral ASP concentration [1]: 2.40 ± 0.56^d,i μmol/g (w.w.)
- cerebral CITR concentration [1]: 0.018 ± 0.004 µmol/g (w.w.)
- cerebral GABA concentration [1]: 1.43 ± 0.25^a μmol/g (w.w.)
- cerebral GLN concentration [1]: 4.78 ± 1.09^a μmol/g (w.w.)
- cerebral GLU concentration [1]: 9.81 ± 1.66^i μmol/g (w.w.)
- cerebral GLY concentration [1]: 0.83 ± 0.25^a,c μmol/g (w.w.)
- cerebral HIS concentration [1]: 0.068 ± 0.015^b μmol/g (w.w.)
- cerebral ILE concentration [1]: 0.038 ± 0.007 µmol/g (w.w.)
- cerebral L-Cystat concentration [1]: 0.185 ± 0.031^b,c,i μmol/g (w.w.)
- cerebral LEU concentration [1]: 0.021 ± 0.005^a,c μmol/g (w.w.)
- cerebral LYS concentration [1]: 0.236 ± 0.057^b,d,h μmol/g (w.w.)
- cerebral MET concentration [1]: 0.016 ± 0.005^d,j μmol/g (w.w.)
- cerebral ORN concentration [1]: 0.014 ± 0.007 µmol/g (w.w.)
- cerebral PHE concentration [1]: 0.031 ± 0.011^b,d μmol/g (w.w.)
- cerebral SAH concentration [1]: 0.033 ± 0.008^b,c,j μmol/g (w.w.)
- cerebral SER concentration [1]: 0.88 ± 0.25^a μmol/g (w.w.)
- cerebral TAU concentration [1]: 4.86 ± 0.85^b μmol/g (w.w.)
- cerebral THR concentration [1]: 0.92 ± 0.29^a μmol/g (w.w.)
- cerebral TRP concentration [1]: 0.030 ± 0.007^b,dg,i μmol/g (w.w.)
- cerebral TYR concentration [1]: 0.15 ± 0.03 µmol/g (w.w.)
- cerebral VAL concentration [1]: 0.042 ± 0.011 µmol/g (w.w.)
- cerebral ALA concentration [2]: 0.52 ± 0.24^a,e μmol/g (w.w.)
- cerebral ARG concentration [2]: 0.16 ± 0.03 µmol/g (w.w.)
- cerebral ASN concentration [2]: 0.13 ± 0.03^i μmol/g (w.w.)
- cerebral ASP concentration [2]: 2.94 ± 0.98^f,j μmol/g (w.w.)
- cerebral CITR concentration [2]: 0.018 ± 0.008 µmol/g (w.w.)
- cerebral GABA concentration [2]: 1.60 ± 0.24^a μmol/g (w.w.)
- cerebral GLN concentration [2]: 3.66 ± 0.41 µmol/g (w.w.)
- cerebral GLU concentration [2]: 9.93 ± 1.56^e,i μmol/g (w.w.)
- cerebral GLY concentration [2]: 0.71 ± 0.16^f,i μmol/g (w.w.)
- cerebral HIS concentration [2]: 0.055 ± 0.019 µmol/g (w.w.)
- cerebral ILE concentration [2]: 0.048 ± 0.017^a μmol/g (w.w.)
- cerebral L-Cystat concentration [2]: 0.173 ± 0.038^b,f,i μmol/g (w.w.)
- cerebral LEU concentration [2]: 0.018 ± 0.004 µmol/g (w.w.)
- cerebral LYS concentration [2]: 0.32 ± 0.04^a,e,i μmol/g (w.w.)
- cerebral MET concentration [2]: 0.022 ± 0.006^b,e,i μmol/g (w.w.)
- cerebral ORN concentration [2]: 0.011 ± 0.005 µmol/g (w.w.)
- cerebral PHE concentration [2]: 0.028 ± 0.010 µmol/g (w.w.)
- cerebral SAH concentration [2]: 0.026 ± 0.010^f,i μmol/g (w.w.)
- cerebral SER concentration [2]: 0.71 ± 0.28^b μmol/g (w.w.)
- cerebral TAU concentration [2]: 3.80 ± 1.19 µmol/g (w.w.)
- cerebral THR concentration [2]: 0.66 ± 0.23 µmol/g (w.w.)
- cerebral TRP concentration [2]: 0.015 ± 0.006 µmol/g (w.w.)
- cerebral TYR concentration [2]: 0.172 ± 0.046^b,f μmol/g (w.w.)
- cerebral VAL concentration [2]: 0.057 ± 0.017 µmol/g (w.w.)
- cerebral ALA concentration [3]: 0.57 ± 0.28^a,e μmol/g (w.w.)
- cerebral ARG concentration [3]: 0.14 ± 0.02 µmol/g (w.w.)
- cerebral ASN concentration [3]: 0.18 ± 0.02^a μmol/g (w.w.)
- cerebral ASP concentration [3]: 4.46 ± 0.70^a,f μmol/g (w.w.)
- cerebral CITR concentration [3]: 0.020 ± 0.006 µmol/g (w.w.)
- cerebral GABA concentration [3]: 1.85 ± 0.65^a μmol/g (w.w.)
- cerebral GLN concentration [3]: 3.98 ± 0.34 µmol/g (w.w.)
- cerebral GLU concentration [3]: 13.58 ± 1.28^a μmol/g (w.w.)
- cerebral GLY concentration [3]: 1.05 ± 0.13^a,f μmol/g (w.w.)
- cerebral HIS concentration [3]: 0.047 ± 0.021 µmol/g (w.w.)
- cerebral ILE concentration [3]: 0.041 ± 0.016^b μmol/g (w.w.)
- cerebral L-Cystat concentration [3]: 0.26 ± 0.05^a,f μmol/g (w.w.)
- cerebral LEU concentration [3]: 0.024 ± 0.032^b,f μmol/g (w.w.)
- cerebral LYS concentration [3]: 0.179 ± 0.036 µmol/g (w.w.)
- cerebral MET concentration [3]: 0.009 ± 0.004^b μmol/g (w.w.)
- cerebral ORN concentration [3]: 0.017 ± 0.009^a,e μmol/g (w.w.)
- cerebral PHE concentration [3]: 0.033 ± 0.011^b μmol/g (w.w.)
- cerebral SAH concentration [3]: 0.050 ± 0.013^a μmol/g (w.w.)
- cerebral SER concentration [3]: 0.93 ± 0.27^a,e μmol/g (w.w.)
- cerebral TAU concentration [3]: 4.49 ± 0.43^a μmol/g (w.w.)
- cerebral THR concentration [3]: 0.75 ± 0.24^a,e μmol/g (w.w.)
- cerebral TRP concentration [3]: 0.012 ± 0.007 µmol/g (w.w.)
- cerebral TYR concentration [3]: 0.21 ± 0.05^f μmol/g (w.w.)
- cerebral VAL concentration [3]: 0.040 ± 0.016^b μmol/g (w.w.)
- increase in cerebral glutamate (GLU) induced by sTBI (drug administered early post-injury (30 min following sTBI), 15 mg/kg s.c.): remarkable inhibition
- efficacy on glutamate excitotoxicity marker (drug injected at 3 days after sTBI): no efficacy
- compounds of the methyl cycle (Met, L-Cystat, SAH) (rat brain after sTBI, 15 mg/kg s.c.): significant beneficial effects
